Assay results taken from patent US20090042987A1, “TREATMENT OF NEUROPATHIC PAIN” (priority 2007, published 2009).

Tested on: drug-naïve STZ-diabetic rats
Assay: von Frey paw withdrawal thresholds, drug-naïve STZ-diabetic rats, Example 2
Type: in vivo, rat
Settings: for Mean (±SEM) AUC (area under the normalized PWT versus time curve) / Mean (±SEM) Peak response (PWT) / Mean (±SEM) % MPR at peak: after 7th consecutive twice-daily dose; for Mean (±SEM) % MPR at peak: 100% MPR = full reversal of tactile allodynia
Description: Experimental Animals Ethical approval for this study was obtained from the Animal Experimentation Ethics Committee of The University of Queensland. Adult male Sprague-Dawley (SD) rats (222±4 g) were used for this study. Rats were housed in a temperature controlled room (21+2.0 C) with a 12/12 hour light/dark cycle. Food and water were available ad libitum. Initiation of drug administration occurred at 8-11 weeks post-STZ administration for rats in Experiment 1 (PCT-001) and at 10-12 weeks post-STZ administration for rats in Experiment 2 (PCT-007).
Test Article Tranilast was supplied by the Sponsor and stored at −4° C. until use. Gabapentin (100 mg/kg, dissolved in water for injection) was utilized as the positive control for this study.
Test Article and Vehicle Preparation Test article formulations were prepared freshly on the day of administration by weighing the appropriate amount of bulk powder and suspending it in the required volume of vehicle. Carboxymethyl cellulose ((CMC) 0.5% in water for injection) was utilized as the vehicle for this study.
Test Article Administration. […] The maximum oral gavage volume administered in this study was […]. 4.4
STZ-Diabetic Rat Model of Painful Diabetic Neuropathy. Painful diabetic neuropathy is a common long-term complication of diabetes in humans that develops as a result of a sustained biochemical nerve injury. […] Following the induction of diabetes with intravenous STZ at 70-80 mg/kg, it generally takes 6-8 wks for tactile allodynia, the defining symptom of PDN, to fully develop in both rat hindpaws.
Induction of STZ-Diabetes in Rats. On day 0, rats were anaesthetized with 3% isoflurane:97% O2 and a short polyethylene cannula (0.5 mm ID, 0.8 mm OD) was inserted into the jugular vein to facilitate the intravenous (i.v.) administration of a single dose of streptozotocin (STZ: 70-80 mg/kg). After STZ injection, the cannula was removed and the jugular vein was tied off and the wound was closed. Rats received subcutaneous benzylpenicillin (60 mg) prior to surgery to prevent infection and were kept warm during surgical recovery. Rats were housed singly prior to further experimentation and were monitored daily from the time of STZ administration with regard to general health and well-being.
Von Frey Assessment of Paw Withdrawal Thresholds. Calibrated von Frey filaments were used to determine the lowest mechanical threshold required to evoke a brisk paw withdrawal reflex in the rat hindpaws. Briefly, rats were transferred individually to wire mesh testing cages (20 cm×20 cm×20 cm) and allowed to acclimatize for approximately 10-20 min prior to von Frey testing. Commencing with the von Frey filament that produced the 6 g force, the filament was applied to the plantar surface of the hindpaw until the filament buckled slightly. Absence of a response after 3 s prompted use of the next filament of increasing weight. A withdrawal response within 3 s prompted use of the next filament of decreasing weight. Filaments used produced buckling weights of 2, 4, 6, 8, 10, 12, 14, 16, 18 and 20 g. […] Tactile allodynia is regarded as being fully developed when von Frey PWTs in the injured hindpaws are <6 g.
Restoring von-Frey PWTs in the hindpaws from <6 g to pre-STZ surgery levels (12±2 g) is the treatment goal representing full reversal of tactile allodynia. If drug treatment increases PWTs above pre-surgical baseline values (i.e. >12±2 g), such a response is classified as antinociception. Before administration of STZ, baseline von Frey measurements were assessed. Following STZ administration, baseline PWTs were assessed in the hindpaws at week 8-11 to confirm the development of diabetes-induced tactile allodynia.
Dose-Response Curve for Tranilast in Drug-Naive STZ-Diabetic Rats. […]

`COc1ccc(/C=C/C(=O)Nc2ccccc2C(=O)O)cc1OC` [Tranilast, 2-[[3-(3,4-dimethoxyphenyl)-1-oxo-2-propenyl]amino]benzoic acid] was tested, and the “Mean (±SEM) von Frey Paw Withdrawal threshold assessed prior to dose” value (tranilast 100 mg/kg oral twice-daily, prior to dose 1) was 4.8 ± 0.5 g, the “Mean (±SEM) von Frey Paw Withdrawal threshold assessed prior to dose” value (tranilast 100 mg/kg oral twice-daily, prior to dose 3) was 4.4 ± 0.7 g and the “Mean (±SEM) von Frey Paw Withdrawal threshold assessed prior to dose” value (tranilast 100 mg/kg oral twice-daily, prior to dose 5) was 5.1 ± 0.5 g. For the same compound, the “Mean (±SEM) von Frey Paw Withdrawal threshold assessed prior to dose” value (tranilast 100 mg/kg oral twice-daily, prior to dose 7) was 5.3 ± 0.5 g, the “Mean (±SEM) von Frey Paw Withdrawal threshold following the 7th consecutive dose” value (tranilast 100 mg/kg oral twice-daily, time 0 h (pre-dose)) was 5.3 ± 0.4 g and the “Mean (±SEM) von Frey Paw Withdrawal threshold following the 7th consecutive dose” value (tranilast 100 mg/kg oral twice-daily, time 0.15 h) was 6.0 ± 0 g. For the same compound, the “Mean (±SEM) von Frey Paw Withdrawal threshold following the 7th consecutive dose” value (tranilast 100 mg/kg oral twice-daily, time 0.5 h) was 7.25 ± 0.5 g, the “Mean (±SEM) von Frey Paw Withdrawal threshold following the 7th consecutive dose” value (tranilast 100 mg/kg oral twice-daily, time 0.75 h) was 7.75 ± 0.25 g and the “Mean (±SEM) von Frey Paw Withdrawal threshold following the 7th consecutive dose” value (tranilast 100 mg/kg oral twice-daily, time 1 h) was 8.25 ± 0.5 g. For the same compound, the “Mean (±SEM) von Frey Paw Withdrawal threshold following the 7th consecutive dose” value (tranilast 100 mg/kg oral twice-daily, time 1.25 h) was 8.0 ± 0 g, the “Mean (±SEM) von Frey Paw Withdrawal threshold following the 7th consecutive dose” value (tranilast 100 mg/kg oral twice-daily, time 1.5 h) was 6.75 ± 0.5 g and the “Mean (±SEM) von Frey Paw Withdrawal threshold following the 7th consecutive dose” value (tranilast 100 mg/kg oral twice-daily, time 2 h) was 7.0 ± 0.6 g. The “Mean (±SEM) von Frey Paw Withdrawal threshold following the 7th consecutive dose” value (tranilast 100 mg/kg oral twice-daily, time 3 h) was 6.25 ± 0.3 g, the “Mean (±SEM) AUC (area under the normalized PWT versus time curve)” value (tranilast 100 mg/kg oral) was 4.98 ± 1.7 and the “Mean (±SEM) Peak response (PWT)” value (tranilast 100 mg/kg oral) was 8.25 ± 0.5. The “Mean (±SEM) % MPR at peak” value (tranilast 100 mg/kg oral) was 53.2 ± 3.3%, the “Mean (±SEM) von Frey Paw Withdrawal threshold assessed prior to dose” value (tranilast 200 mg/kg oral twice-daily, prior to dose 1) was 4.9 ± 0.6 g and the “Mean (±SEM) von Frey Paw Withdrawal threshold assessed prior to dose” value (tranilast 200 mg/kg oral twice-daily, prior to dose 3) was 5.2 ± 0.6 g. The “Mean (±SEM) von Frey Paw Withdrawal threshold assessed prior to dose” value (tranilast 200 mg/kg oral twice-daily, prior to dose 5) was 5.2 ± 0.5 g, the “Mean (±SEM) von Frey Paw Withdrawal threshold assessed prior to dose” value (tranilast 200 mg/kg oral twice-daily, prior to dose 7) was 5.2 ± 0.5 g and the “Mean (±SEM) von Frey Paw Withdrawal threshold following the 7th consecutive dose” value (tranilast 200 mg/kg oral twice-daily, time 0 h (pre-dose)) was 5.2 ± 0.4 g. The “Mean (±SEM) von Frey Paw Withdrawal threshold following the 7th consecutive dose” value (tranilast 200 mg/kg oral twice-daily, time 0.15 h) was 5.75 ± 0.7 g, the “Mean (±SEM) von Frey Paw Withdrawal threshold following the 7th consecutive dose” value (tranilast 200 mg/kg oral twice-daily, time 0.5 h) was 7.25 ± 0.5 g and the “Mean (±SEM) von Frey Paw Withdrawal threshold following the 7th consecutive dose” value (tranilast 200 mg/kg oral twice-daily, time 0.75 h) was 8.25 ± 0.25 g. The “Mean (±SEM) von Frey Paw Withdrawal threshold following the 7th consecutive dose” value (tranilast 200 mg/kg oral twice-daily, time 1 h) was 8.75 ± 0.5 g, the “Mean (±SEM) von Frey Paw Withdrawal threshold following the 7th consecutive dose” value (tranilast 200 mg/kg oral twice-daily, time 1.25 h) was 7.25 ± 0.25 g and the “Mean (±SEM) von Frey Paw Withdrawal threshold following the 7th consecutive dose” value (tranilast 200 mg/kg oral twice-daily, time 1.5 h) was 7.0 ± 0.5 g. For the same compound, the “Mean (±SEM) von Frey Paw Withdrawal threshold following the 7th consecutive dose” value (tranilast 200 mg/kg oral twice-daily, time 2 h) was 7.25 ± 0.25 g, the “Mean (±SEM) von Frey Paw Withdrawal threshold following the 7th consecutive dose” value (tranilast 200 mg/kg oral twice-daily, time 3 h) was 6.0 ± 0 g and the “Mean (±SEM) AUC (area under the normalized PWT versus time curve)” value (tranilast 200 mg/kg oral) was 5.75 ± 0.7. For the same compound, the “Mean (±SEM) Peak response (PWT)” value (tranilast 200 mg/kg oral) was 8.75 ± 0.5, the “Mean (±SEM) % MPR at peak” value (tranilast 200 mg/kg oral) was 62.6 ± 11.7% and the “Mean (±SEM) von Frey Paw Withdrawal threshold assessed prior to dose” value (tranilast 300 mg/kg oral twice-daily, prior to dose 1) was 4.2 ± 0.6 g. The “Mean (±SEM) von Frey Paw Withdrawal threshold assessed prior to dose” value (tranilast 300 mg/kg oral twice-daily, prior to dose 3) was 3.7 ± 0.8 g, the “Mean (±SEM) von Frey Paw Withdrawal threshold assessed prior to dose” value (tranilast 300 mg/kg oral twice-daily, prior to dose 5) was 3.9 ± 0.7 g and the “Mean (±SEM) von Frey Paw Withdrawal threshold assessed prior to dose” value (tranilast 300 mg/kg oral twice-daily, prior to dose 7) was 4.8 ± 0.6 g. For the same compound, the “Mean (±SEM) von Frey Paw Withdrawal threshold following the 7th consecutive dose” value (tranilast 300 mg/kg oral twice-daily, time 0 h (pre-dose)) was 4.8 ± 0.5 g, the “Mean (±SEM) von Frey Paw Withdrawal threshold following the 7th consecutive dose” value (tranilast 300 mg/kg oral twice-daily, time 0 h (pre-dose), listed as tranilast) was 4.8 (±0.5) g and the “Mean (±SEM) von Frey Paw Withdrawal threshold following the 7th consecutive dose” value (tranilast 300 mg/kg oral twice-daily, time 0.15 h) was 5.4 ± 0.7 g. The “Mean (±SEM) von Frey Paw Withdrawal threshold following the 7th consecutive dose” value (tranilast 300 mg/kg oral twice-daily, time 0.5 h) was 8.6 ± 1.5 g.
